We go through 9 molecules from patent US20250296929A1, “NOVEL HEPATOSELECTIVE POLYADENYLATING POLYMERASES INHIBITORS AND THEIR METHOD OF USE” (BARUCH S. BLUMBERG INSTITUTE, priority 2021, published 2025).

In series [1] the target is T1, OATP1B3 (Homo sapiens, UniProt Q9NPD5).
T1 construct: expressed in transfected cells; host or cells: HEK293
T1 sequence (Q9NPD5 1-702): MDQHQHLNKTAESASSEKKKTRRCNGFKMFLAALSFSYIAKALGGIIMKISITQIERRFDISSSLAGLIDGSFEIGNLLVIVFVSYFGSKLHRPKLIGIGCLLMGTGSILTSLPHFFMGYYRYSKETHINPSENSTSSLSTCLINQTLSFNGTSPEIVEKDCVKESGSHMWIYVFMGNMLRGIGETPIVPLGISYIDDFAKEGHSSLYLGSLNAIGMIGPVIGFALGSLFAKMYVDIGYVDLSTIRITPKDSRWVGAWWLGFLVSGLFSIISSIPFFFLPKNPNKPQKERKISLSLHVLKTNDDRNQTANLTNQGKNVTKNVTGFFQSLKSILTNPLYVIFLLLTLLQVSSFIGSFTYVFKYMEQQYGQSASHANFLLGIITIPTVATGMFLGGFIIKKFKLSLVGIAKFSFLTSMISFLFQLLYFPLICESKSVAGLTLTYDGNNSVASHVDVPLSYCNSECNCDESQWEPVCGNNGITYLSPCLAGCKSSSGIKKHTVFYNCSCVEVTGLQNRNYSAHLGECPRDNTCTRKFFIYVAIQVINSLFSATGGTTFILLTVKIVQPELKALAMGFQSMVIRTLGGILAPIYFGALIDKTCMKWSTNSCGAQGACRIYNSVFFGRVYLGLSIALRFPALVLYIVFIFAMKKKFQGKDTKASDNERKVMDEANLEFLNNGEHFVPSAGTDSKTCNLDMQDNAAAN
The series can be described thus: OATP1B3 transporter substrate uptake in OATP1B3-HEK293 cells. In kind it is in vitro ADME. Particulars: for Uptake Ratio (−/+Inhibitor): OATP1B3-HEK293 cells, inhibitor Rifamycin SV; for Uptake Ratio (Transporter(−Inhibitor)/Mock(−Inhibitor)): OATP1B3-HEK293 vs Mock. On the procedure:
Protocol for identification of compounds that are substrates of transporters OATP1B1 and OATP1B3. Transfected HTEK293 and vector control HTEK293 cells were cultured in 24-well poly-D-lysine or collagen-coated tissue culture plates ([…]) for 2 and 10 minutes respectively in transport buffer (HIBSSg, pH 7.4, pre-warmed to 37° C.). At a defined time point, the uptake experiments were stopped by removing dosing solution followed by two washes of ice-cold HIBSSg buffer. The cells were lysed for 2 minutes with […] containing an appropriate internal standard (when available). Lysis buffer were chilled to −20° C., and the plate was kept on ice during lysis. The cell lysate was transferred into a 96-well plate for sample analysis with LC-MS/MS analysis to determine concentration of test compound in cell lysate. The uptake of test compounds was normalized by total cell protein using the BCA Protein Assay Kit following the manufacturer's protocol. The inhibitor Rifamycin SV was used to block OATP1B1 and OATP1B3 transporter activity in order to determine uptake ratios.

For series [2], the system named is woodchuck hepatitis virus (WHV). Particulars: oral administration, woodchucks chronically infected with WHV; cited from earlier work.
Series [3] deals with HBV. Particulars: oral treatment, HBV infected uPA-SCID mice harboring human hepatocytes; cited from earlier work.
For series [4] the following is noted: in words; cited from earlier work.
Series [5] deals with T2, OATP1B1 (Homo sapiens, UniProt Q9Y6L6).
T2 construct: expressed in transfected cells; host or cells: HEK293
T2 sequence (Q9Y6L6 1-691): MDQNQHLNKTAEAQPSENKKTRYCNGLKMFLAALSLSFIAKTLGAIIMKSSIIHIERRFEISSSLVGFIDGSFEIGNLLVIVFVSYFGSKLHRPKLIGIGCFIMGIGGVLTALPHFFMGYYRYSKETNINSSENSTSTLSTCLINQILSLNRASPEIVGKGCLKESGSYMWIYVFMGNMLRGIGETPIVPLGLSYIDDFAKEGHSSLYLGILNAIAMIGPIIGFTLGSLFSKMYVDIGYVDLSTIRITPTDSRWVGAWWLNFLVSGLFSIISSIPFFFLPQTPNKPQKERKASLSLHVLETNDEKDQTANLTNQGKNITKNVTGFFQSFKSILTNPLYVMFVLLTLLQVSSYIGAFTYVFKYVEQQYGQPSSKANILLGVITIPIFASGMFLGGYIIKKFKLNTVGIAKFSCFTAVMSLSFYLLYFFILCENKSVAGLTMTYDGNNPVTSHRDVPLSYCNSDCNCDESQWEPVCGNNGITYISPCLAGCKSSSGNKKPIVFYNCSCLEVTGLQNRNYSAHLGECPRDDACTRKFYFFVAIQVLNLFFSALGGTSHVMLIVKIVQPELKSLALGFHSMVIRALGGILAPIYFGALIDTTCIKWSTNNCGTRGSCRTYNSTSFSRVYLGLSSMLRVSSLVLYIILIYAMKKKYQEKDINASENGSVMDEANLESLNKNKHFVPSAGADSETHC
The experiment in a line: OATP1B1 transporter substrate uptake in OATP1B1-HEK293 cells. The format is in vitro ADME. Particulars: for Uptake Ratio (−/+Inhibitor): OATP1B1-HEK293 cells, inhibitor Rifamycin SV; for Uptake Ratio (Transporter(−Inhibitor)/Mock(−Inhibitor)): OATP1B1-HEK293 vs Mock (normal HEK293).

The nature of series [6]: Cellular toxicity (CellTiter-Glo) in HepG2.2.15 cells. The format is cell-based. Conditions: human. On the procedure: (§1) Cellular assays method 1: Cellular assays: The HBV producing cell line HepG2.2.15 was cultured in DMEM/F12 containing 10% fetal bovine serum (FBS), 100 U/ml penicillin and 100 μg/ml streptomycin (Invitrogen). Compounds of the disclosure in DMSO was added into the culture medium when cell reached 100% confluence. The final concentration of DMSO was adjusted to 0.5%. Culture medium was replaced in two days and the cell was cultured for additional two days in the presence of compound. HBsAg inhibition in culture medium was then detected with AlphaLisa assay using anti-HBsAg antibodies of 10-H05H and 60C-CR2100RB from Fitzgerald Internantional. To examine the change of nucleic acid, total RNA was extracted with Trizol reagents and resolved in glyoxal agarose gel. HBV RNA blotted onto nitrocellulose membrane was measured with P32 labeled ribo-probe. Reduction and shortening of viral RNA indicates on target effect of the tested compound. […] HepG2.2.15 cells were first seeded in 96-well plate (Corning, Cat #: CLS3595) at density of 10,000 cells/well in 100 ul DMEM/F12 medium containing 10% FBS. When cells reached 100% confluence, treatment with compounds of the disclosure was initiated, and cells were cultured in the way as described for HBsAg inhibition study. Four days post drug treatment, 100 ul of CellTiter-Glo reagents (Promega, Cat #G7570) were added into each well and the mixture was incubated at 23° C. for 12 minutes, followed by the reading of luminescent signal in Tecan's Infinite 200 PRO. Compound IC50 on HBsAg and CC50 on cell viability were calculated using Graphpad prism. The IC50 and CC50 are defined as the compound concentration (or conditioned media log dilution) at which HBsAg secretion and cytotoxicity, respectively, are reduced by 50% compared to the no drug control.
(§2) Cellular assays method 2: HepG2.2.15 cells were seeded in duplicate into white, 96-well plates at 1.5×10^4 cells/well. The cells were treated with a 3-fold serial dilution series of the compounds in DMSO. The final DMSO concentration in all wells was 1%, and DMSO was used as no drug control. The HBsAg chemiluminescence immunoassay (CLIA) kit (Autobio Diagnostics Co., Zhengzhou, China) was used to measure the levels of secreted HBV antigens semi-quantitatively. For the detection, 50 μL/well culture supernatant was used and the procedure conducted as directed by manufacturer's instructions. The cytotoxicity was measured using CellTiter-Glo (Promega, Madison, WI, USA, catalogue no. G7571). Dose-response curves were generated and the IC50 and CC50 values were calculated using Graphpad prism. The IC50 and CC50 are defined as the compound concentration (or conditioned media log dilution) at which HBsAg secrection and cytotoxicity, respectively, are reduced by 50% compared to the no drug control.

Series [7] concerns HBsAg secretion, HBV producing cell line HepG2.2.15. The experiment in a line: Cellular assay: HBsAg inhibition in HBV producing cell line HepG2.2.15. Conditions: Hepatitis B virus. The format is cell-based. On the procedure:
as §1, §2

Regarding `COCCCOc1cc2c(cc1OC)-c1cc(=O)c(C(=O)O)cn1[C@H](C(C)C)C2` [DHQ-1], in series [1] (test concentration 1 μM), the “Uptake Ratio (−/+Inhibitor)” value is listed as 0.42 and the “Uptake Ratio (Transporter(−Inhibitor)/Mock(−Inhibitor))” value amounted to 0.56. The “Reduction of WHV and surface protein in the blood” value in series [2] was “multi-log reductions”. Also, the “Reduction of HBsAg in the circulation” value in series [3] is 1 log. Moreover, the Toxicity observed result in series [4] is on record as “acute neurotoxicity liabilities”. For the same molecule, in series [5] (test concentration 1 μM), the “Uptake Ratio (−/+Inhibitor)” value is 0.38 and the “Uptake Ratio (Transporter(−Inhibitor)/Mock(−Inhibitor))” value is recorded as 0.71.

Consider `C[C@]12CC[C@@H]3c4ccc(O)cc4CC[C@H]3[C@@H]1CC[C@@H]2O[C@@H]1O[C@H](C(=O)O)[C@@H](O)[C@H](O)[C@H]1O` [Estradiol 17-β Glucuronide], for which, in series [1] (test concentration 10 μM), the “Uptake Ratio (−/+Inhibitor)” value was determined as 86.15 and the “Uptake Ratio (Transporter(−Inhibitor)/Mock(−Inhibitor))” value is recorded as 98.86. In series [5] (test concentration 10 μM), the “Uptake Ratio (−/+Inhibitor)” value turned out to be 81.84 and the “Uptake Ratio (Transporter(−Inhibitor)/Mock(−Inhibitor))” value stood at 48.70.

With `COc1cc2c(cc1OCC(=O)O)C[C@@H](C(C)C)n1cc(C(=O)O)c(=O)cc1-2` [Example 1, (S)-9-(carboxymethoxy)-6-isopropyl-10-methoxy-2-oxo-6,7-dihydro-2H-pyrido [2,1-a]isoquinoline-3-carboxylic acid], the CC50 (as a rule, the concentration at which the toxic effect on the cells reaches its halfway point) in series [6] is more than 10 µM. Further, in series [7], the response was half-maximal at 10000 nM (EC50).

For `COc1cc2c(cc1OCCCC(=O)O)C[C@@H](C(C)C)n1cc(C(=O)O)c(=O)cc1-2` [Example 2, (S)-9-(3-carboxypropoxy)-6-isopropyl-10-methoxy-2-oxo-6,7-dihydro-2H-pyrido [2,1-a]isoquinoline-3-carboxylic acid], the half-maximal cytotoxic concentration (CC50) in series [6] is more than 10 µM. For the same molecule, the EC50 (commonly the concentration needed to bring the measured effect to its halfway point) in series [7] is 1010 nM.

On to `COc1cc2c(cc1OCCCCC(=O)O)C[C@@H](C(C)C)n1cc(C(=O)O)c(=O)cc1-2` [Example 3, (S)-9-(4-carboxybutoxy)-6-isopropyl-10-methoxy-2-oxo-6,7-dihydro-2H-pyrido[2,1-a]isoquinoline-3-carboxylic acid], for which the CC50 in series [6] was more than 10 µM. This molecule showed an EC50 in series [7] of 380 nM.

In series [6], `COc1cc2c(cc1OCCCCCC(=O)O)C[C@@H](C(C)C)n1cc(C(=O)O)c(=O)cc1-2` [Example 4, (S)-9-((5-carboxypentyl)oxy)-6-isopropyl-10-methoxy-2-oxo-6,7-dihydro-2H-pyrido[2,1-a]isoquinoline-3-carboxylic acid] returned a CC50 of more than 10 µM. Moreover, a half-maximal response in series [7] (EC50) required 87 nM.

In series [6], `COc1cc2c(cc1OCCCOCC(=O)O)C[C@@H](C(C)C)n1cc(C(=O)O)c(=O)cc1-2` [Example 5, (S)-9-(3-(carboxymethoxy)propoxy)-6-isopropyl-10-methoxy-2-oxo-6,7-dihydro-2H-pyrido[2,1-a]isoquinoline-3-carboxylic acid] displayed a CC50 of more than 10 µM. In series [7], this molecule gave an EC50 of 2780 nM.

As for `COc1cc2c(cc1OCCCCCCCC(=O)O)C[C@@H](C(C)C)n1cc(C(=O)O)c(=O)cc1-2` [Example 7, (S)-9-((7-carboxyheptyl)oxy)-6-isopropyl-10-methoxy-2-oxo-6,7-dihydro-2H-pyrido[2,1-a]isoquinoline-3-carboxylic acid], in series [6], the CC50 is more than 10 µM. The same molecule gave an EC50 in series [7] of 7.6 nM.

For `COc1cc2c(cc1OCCCCCCCCC(=O)O)C[C@@H](C(C)C)n1cc(C(=O)O)c(=O)cc1-2` [Example 8, (S)-9-((8-carboxyoctyl)oxy)-6-isopropyl-10-methoxy-2-oxo-6,7-dihydro-2H-pyrido[2,1-a]isoquinoline-3-carboxylic acid], the CC50 in series [6] is more than 10 µM. Further, in series [7], the EC50 came out at 4.6 nM.
